Test results: PMC8445934, “Transformation of tenofovir into stable ProTide nanocrystals with long-acting pharmacokinetic profiles” (Nature Communications, 2021)
Converted amounts (≈) assume the structure as drawn. “And” between values parts separate entries of the source, which are not always exact repeats. Equal values may be shown once. Read-outs that look alike come from different tables or passages of the source.

How the values were obtained:
HIV-1ADA = assay: Antiretroviral EC50/IC50 in MDM by HIV-1 RT activity after HIV-1ADA challenge; format: cell-based; settings: for EC50: Human immunodeficiency virus 1, 240 h; for HIV-1 RT activity (Figure 2C source data): MDM, HIV-1ADA, replicates
Protocol: To determine long-term antiretroviral efficacy following a single treatment, MDMs were plated in flat-bottom 12-well plates at a density of 1.2 × 10^6 cells/well. […] After treatment, the cells were washed twice with PBS and cultured in a fresh culture medium without drug with half-media replacement every other day. On days 1, 5, 10, 15, 20, 25, and 30 following treatment, the cells were infected with HIV-1ADA (a macrophage-tropic viral strain) at a multiplicity of infection of 0.1 infectious particles/cell for 8 h. MDM were cultured, and media samples collected on day 10 for the measurement of HIV reverse transcriptase (RT) activity as previously described[64],[65]. Cells were fixed in 2% PFA at each time point, and expression of the HIV-1p24 antigen was determined by immunocytochemistry. […] After 4 h of viral challenge, the cells were washed with PBS and given fresh media that contained the same concentrations of drug (0.00005–5,000 nM). Cell supernatants were collected 10 days later and assayed for HIV-1 RT activity as described above. Replicate studies were performed in CEM-ss CD4+ T-cell cultures. Specifically, cells were plated in 96-well plates, centrifuged at 650 × g for 5 min, and resuspended in (0.1–1,000 nM) drug-containing media for 1 h. The subsequent challenge with HIV-1NL4–3-eGFP, cell culture, sample collection, and determination of HIV-1 RT activity were performed as previously reported[13],[15].

[1] = Prodrug chemical stability of dissociated nanoformulations in pH 2.0-10.3 buffers; format: physicochemical; settings: buffers pH 2.0-10.3, 24 h
Protocol: The mixtures were centrifuged at 16,000 × g for 10 min. The supernatants were aspirated and stored at −80 °C until ultraperformance liquid chromatography tandem mass spectrometry (UPLC-MS/MS) analysis.

[2] = Prodrug stability in human plasma with or without heat-inactivation; format: in vitro ADME
Text: Point 4. “It would be interesting to see what happens with separate injection at 56 days. Will mast cells occur or was a IgG or IGM response measured?”
Response: The transient presence of mast cells at the intramuscular site of injection is a normal physiological tissue injury response and has been previously observed after intramuscular injection of phosphate buffered saline or aqueous nanocrystalline compounds (Journal of the Neurological Sciences […]
al, mast cells could affect host protein adsorption to the particle surface to influence phagocytosis efficiency, lymphatic nanoparticle uptake and prodrug hydrolytic susceptibility. Other findings by Paquette et al. noted that the foreign body response observed following intramuscular or subcutaneous dosing of […]
Res. 2014; 31(8): 2065–2077). […]
immunogenicity markers were previously measured (PLoS One. 2015 Dec 30;10(12):e0145966. doi:
10.1371/journal.pone.0145966). In our prior studies we have assessed temporal leukocyte responses, drug uptake and distribution following multiple site injection of nanoformulated drugs. […]
inflammatory responses heralded drug distribution to macrophage populations, regional lymph nodes, spleen and liver. This proceeded changes in myeloid populations as determined through flow cytometric tests of changed CD45, CD3, CD11b, F4/80, and GR-1 surface markers. […]

[3] = Aqueous and 1-octanol solubility (excess drug, shaking 48 h, UPLC-UV); format: physicochemical; settings: for solubility at 48 h: water, thermodynamic from solid
Protocol: Samples were centrifuged at 20,000 × g for 10 min to separate the solubilized drug from insoluble pellet. Aqueous supernatants were frozen, lyophilized, and then resuspended in MeOH. 1-octanol supernatants were prepared for analysis by dilution in MeOH and samples analyzed for drug content by UPLC-UV (Waters Acquity H Class).

HIV-1NL4–3-eGFP = assay: microbe, parasite or virus in culture; format: cell-based; settings: replicates
Text: Supplementary Fi gur e 9. ProTide Biological Characterizations. […]
(1 picture or pasted object on this page, not shown here)

[4] = cited from earlier work
HIV-1 = settings: cited from earlier work
[5] = Figure 1C source data, read-out: water solubility, individual replicates
[6] = room temperature, 48 h, read-out: aqueous solubilities
[7] = Log Drug Concentration (uM) -12

Which EC50 (HIV-1ADA) does the source give for CCCCCCCCCCCCCCCCCCCCCCOC(=O)[C@H](Cc1ccccc1)NP(=O)(CO[C@H](C)Cn1cnc2c(N)ncnc21)Oc1ccccc1 (stereo partly drawn) [M1TFV] here?
Its EC50 is 109 nM.

And the “HIV-1 RT activity (Figure 2C source data)” value (shortened to “HIV-1 RT activity”) (HIV-1ADA; 5e-5 nM)?
Its value is 44.264 and 8.411 and 11.973.

And the “HIV-1 RT activity” value (HIV-1ADA; 0.0005 nM)?
The value was 42.363 and 4.488 and 5.375 and 2.931.

What about the “HIV-1 RT activity” value (HIV-1ADA; 0.005 nM) of the same compound?
The value was 26.663 and 5.953 and 9.965 and 9.489.

And the “HIV-1 RT activity” value (HIV-1ADA; 0.05 nM)?
Its value is 19.017 and 5.47 and 12.158 and 10.741.

And the “HIV-1 RT activity” value (HIV-1ADA; 0.5 nM)?
The value was 23.553 and 6.74 and 16.993 and 9.609.

What about the “HIV-1 RT activity” value (HIV-1ADA; 5 nM) of the same compound?
Its value is 22.939 and 4.566 and 20.189 and 10.617.

And the “HIV-1 RT activity” value (HIV-1ADA; 50 nM)?
Its value is 10.793 and 9.389 and 15.273 and 9.576.

And the “HIV-1 RT activity” value (HIV-1ADA; 500 nM)?
Its value is 1.18 and 0.8 and 2.373 and 0.711.

And the “HIV-1 RT activity” value (HIV-1ADA; 5000 nM)?
The value was 0.069 and 0.042 and 0.107 and 0.063.

And the “hydrolytic stability across pH” value [1]?
Its value is “enhanced prodrug stability over a broader pH range”.

What about the “prodrug stability in human plasma” value [2] of the same compound?
Its value is “greater prodrug stability is observed following heat-inactivation”.

And the “water solubility, individual replicates” value ([3]; Figure 1C source data)?
Its value is 0.0003886.

And the solubility at 48 h [3, 5]?
Its solubility at 48 h is 0.276 µg/mL (≈ 0.338 µM).

What about the solubility at 48 h [3, 6] of the same compound?
Its solubility at 48 h is 2 µg/mL (≈ 2.44 µM).

What about the “% GFP Positive” value (HIV-1NL4–3-eGFP; Log Drug Concentration (uM) 0) of the same compound?
Its value is 0.301% and 0.201% and 0.21%.

And the “% GFP Positive” value (HIV-1NL4–3-eGFP; Log Drug Concentration (uM) -1)?
The value was 3.432% and 0.342% and 0.154%.

What about the “% GFP Positive” value (HIV-1NL4–3-eGFP; Log Drug Concentration (uM) -2) of the same compound?
The value was 34.73% and 38.138% and 34.265%.

What about the “% GFP Positive” value (HIV-1NL4–3-eGFP; Log Drug Concentration (uM) -3) of the same compound?
The value was 36.744% and 32.312% and 31.881%.

And the “% GFP Positive” value (HIV-1NL4–3-eGFP; Log Drug Concentration (uM) -4)?
Its value is 44.656% and 35.338% and 30.526%.

And the “% GFP Positive” value (HIV-1NL4–3-eGFP; Log Drug Concentration (uM) -5)?
Its value is 36.768% and 35.49% and 33.571%.

What about the “% GFP Positive” value (HIV-1NL4–3-eGFP; Log Drug Concentration (uM) -6) of the same compound?
Its value is 35.681% and 31.592% and 30.989%.

And the “% GFP Positive” value (HIV-1NL4–3-eGFP; Log Drug Concentration (uM) -9)?
Its value is 32.583% and 32.39% and 32.614%.

What about the “% GFP Positive” value (HIV-1NL4–3-eGFP; [7]) of the same compound?
Its value is 35.706% and 34.095% and 37.882%.

Which results are given for CCCCCCCCCCCCCCCCCCCCCCOC(=O)[C@H](C)NP(=O)(CO[C@H](C)Cn1cnc2c(N)ncnc21)Oc1ccccc1 (stereo partly drawn) [M2TFV]?
EC50 (HIV-1ADA): 45.8 nM; HIV-1 RT activity (Figure 2C source data) (HIV-1ADA; 5e-5 nM): 13.739 and 9.752 and 35.142 and 27.238; HIV-1 RT activity (Figure 2C source data) (HIV-1ADA; 0.0005 nM): 8.448 and 5.392 and 11.763 and 48.649; HIV-1 RT activity (Figure 2C source data) (HIV-1ADA; 0.005 nM): 4.57 and 12.93 and 25.65; HIV-1 RT activity (Figure 2C source data) (HIV-1ADA; 0.05 nM): 20.147 and 8.847 and 17.324 and 34.222; HIV-1 RT activity (Figure 2C source data) (HIV-1ADA; 0.5 nM): 8.161 and 9.38 and 10.627 and 29.921; HIV-1 RT activity (Figure 2C source data) (HIV-1ADA; 5 nM): 11.203 and 10.291 and 8.118 and 21.328; HIV-1 RT activity (Figure 2C source data) (HIV-1ADA; 50 nM): 5.19 and 8.444 and 10.014 and 13.232; HIV-1 RT activity (Figure 2C source data) (HIV-1ADA; 500 nM): 0.193 and 0.074 and 0.345 and 0.105; HIV-1 RT activity (Figure 2C source data) (HIV-1ADA; 5000 nM): 0.109 and 0.079 and 0.087 and 0.068; water solubility, individual replicates ([3]; Figure 1C source data): 0.01251; solubility at 48 h [3, 5]: 12.8 µg/mL (≈ 17.2 µM); solubility at 48 h [3, 6]: 7 µg/mL (≈ 9.42 µM); % GFP Positive (HIV-1NL4–3-eGFP; Log Drug Concentration (uM) -1): 34.257% and 38.787% and 40.022%; % GFP Positive (HIV-1NL4–3-eGFP; Log Drug Concentration (uM) -2): 32.595% and 37.488% and 35.513%; % GFP Positive (HIV-1NL4–3-eGFP; Log Drug Concentration (uM) -3): 41.233% and 50.41% and 33.492%; % GFP Positive (HIV-1NL4–3-eGFP; Log Drug Concentration (uM) -4): 35.706% and 41.394% and 37.81%; % GFP Positive (HIV-1NL4–3-eGFP; Log Drug Concentration (uM) -5): 40.045% and 36.193% and 55.429%; % GFP Positive (HIV-1NL4–3-eGFP; Log Drug Concentration (uM) -6): 38.435% and 46.924% and 37.203%; % GFP Positive (HIV-1NL4–3-eGFP; Log Drug Concentration (uM) -9): 35.618% and 35.142% and 32.671%; % GFP Positive (HIV-1NL4–3-eGFP; [7]): 34.002% and 36.532% and 30.423%

For C[C@@H](Cn1cnc2c(N)ncnc21)OCP(=O)(O)OP(=O)(O)OP(=O)(O)O [TFV-DP, TFV-diphosphate], which intracellular half-life [4] is on record?
Its intracellular half-life is 60 to 100 h.

What about the “EC90 linked to HIV-1 prevention” value (HIV-1) of the same compound?
The value was 16−48 fmol/10^6 cells.

What about the “human EC90” value (HIV-1) of the same compound?
The value was 40 fmol/10^6 cells.

For C[C@H](Cn1cnc2c(N)ncnc21)OCP(=O)(O)O [TFV], which “% GFP Positive” value (HIV-1NL4–3-eGFP; Log Drug Concentration (uM) 0) is on record?
The value was 36.84% and 37.843%.

What about the “% GFP Positive” value (HIV-1NL4–3-eGFP; Log Drug Concentration (uM) -1) of the same compound?
The value was 31.924% and 40.715% and 38.216%.

What about the “% GFP Positive” value (HIV-1NL4–3-eGFP; Log Drug Concentration (uM) -2) of the same compound?
Its value is 37.754% and 35.95% and 31.757%.

What about the “% GFP Positive” value (HIV-1NL4–3-eGFP; Log Drug Concentration (uM) -3) of the same compound?
The value was 42.49% and 36.095% and 44.333%.

And the “% GFP Positive” value (HIV-1NL4–3-eGFP; Log Drug Concentration (uM) -4)?
The value was 39.731% and 37.304% and 35.107%.

What about the “% GFP Positive” value (HIV-1NL4–3-eGFP; Log Drug Concentration (uM) -5) of the same compound?
The value was 38.31% and 35.838% and 38.644%.

What about the “% GFP Positive” value (HIV-1NL4–3-eGFP; Log Drug Concentration (uM) -6) of the same compound?
Its value is 32.278% and 38.458% and 41.384%.

What about the “% GFP Positive” value (HIV-1NL4–3-eGFP; Log Drug Concentration (uM) -9) of the same compound?
The value was 41.35% and 30.768%.

And the “% GFP Positive” value (HIV-1NL4–3-eGFP; [7])?
The value was 42.035% and 35.935% and 39.23%.
